Tested on: intact SAN from CASQ2 D307H KI mice
Assay: Spontaneous calcium transients ex vivo in intact SAN tissue from CASQ2-D307H KI mice (Fluo-4 AM)
Format: cell-based, mouse
Settings: 2 μM TRAM-34 added to 100 nM isoproterenol
Procedure: SAN tissue preparations were dissected ex vivo from WT and CASQ2-D307H KI mice as described in Torrente, A. G., et al. Proc Natl Acad Sci USA 112, 9769-9774 (2015). The dissected whole SAN tissue was pinned on a hand-made chamber and was incubated in a Tyrode solution containing 10 μM Fluo-4 AM (Thermo Fisher Scientific) and pluronic acid for 1 hour at 37° C. in the dark. The SAN tissue was washed in Tyrode at 37° C. in the dark for 10 minutes before experiments. Fluorescence of calcium transients was recorded using a photomultiplier (PTi D-104) at 35° C. and the analog signals were digitized using Digidata 1440 (Molecular Devices) and analyzed with pCLAMP 10.5 software.
To investigate the spontaneous calcium transients of the SAN, intact SAN tissue preparations dissected ex vivo from WT and CASQ2-D307H KI mice were exposed to Fluo-4 AM as previously described [Torrente, A. G., et al. Proc Natl Acad Sci USA 112, 9769-9774 (2015)].
FIG. 6B presents representative traces of different types of calcium transient abnormalities recorded in intact SAN from CASQ2 D307H KI mice, termed as “local Ca^2+ release” (upper left), “double humped transients” (upper right), “large-stored released Ca^2+ waves” (lower left) and “calcium alternans” (lower right).
FIG. 6C presents representative trace of spontaneous calcium transients recorded from intact SAN of CASQ2 D307H KI. The baseline rate of calcium transients (control, black trace) yielded chaotic calcium transients (red trace) following incubation of the SAN with 100 nM isoproterenol.

Clc1ccccc1C(c1ccccc1)(c1ccccc1)n1cccn1 [TRAM-34, 1-[(2-chlorophenyl)diphenylmethyl]-1H-pyrazole]
number of SANs displaying double humped transients or large-stored released Ca2+ waves: zero
shapes of isoproterenol induced aberrant calcium waves: normalized the shapes of isoproterenol induced aberrant calcium waves

From US11166940B2, “Treatment of cardiac disorders by blocking SK4 potassium channel” (Ramot at Tel-Aviv University Ltd., priority 2016, dated 2021)
